In patent US20200239530A1, “COMPOUNDS AND METHODS OF MODULATING PROTEIN DEGRADATION” (Vividion Therapeutics, Inc., priority 2017, published 2020):
Where two headings read alike, the source gives them in different places.

What was measured:
Assay type in all cases: binding
[1] = biological target: T1, cysteine residue illustrated in Table 1A or Table 2A (Homo sapiens, UniProt A6NGE4); experiment: Competitive cysteine profiling of cell lysate with desthiobiotin iodoacetamide probe (96-well sample prep); settings: UniProt A6NGE4; 500 uM
T1 construct: Cells were resuspended in cold PBS on ice and sonicated with a probe sonicator to achieve lysis; endogenous in cells
Method: (§1) In some embodiments, the solution sample (e.g., cell sample, cell lysate sample, or comprising isolated proteins) is incubated with a compound of Formula (I) for analysis of protein-probe interactions. In some instances, the solution sample (e.g., cell sample, cell lysate sample, or comprising isolated proteins) is further incubated in the presence of an additional compound probe prior to addition of the compound of Formula (I). […] In such instances, the solution sample is incubated with a probe and a ligand for competitive protein profiling analysis.
(§2) The following 96-well sample prep protocol was used for sample preparation.
(§3) Cells were resuspended in cold PBS on ice and sonicated with a probe sonicator to achieve lysis. 200 μL of lysate containing 5 mg/ml proteome was treated with 2 μL of 100× compound stock in a 2-mL deep-well plate. The treated lysate was subsequently incubate at 25° C. for 1 hr with shaking at 600 rpm. The treated lysate was further incubated with 2 μL of 10 mM desthiobiotin iodoacetamide probe at 25° C. for 1 hr with shaking at 600 rpm. Next, the lysate was further treat with 20 μL of solution of PBS containing 11 mM MgSO4 and 2.5% Turbonuclease stock and incubated at 25° C. for 20 minutes with shaking at 600 rpm. 1.7 mL ice-cold acetone was added to each well and incubated at −20° C. for 2 hr, followed by max speed (4200 rpm) spin for 45 min. Acetone was then decanted and the plates were blotted to remove acetone. The plates were then dried in open air for 20 minutes. After drying, the plates were then covered with foil seal and stored at −80° C. overnight.
(§4) The next day, samples were re-suspended in 90 μL of solution of 9M urea, 50 mM ammonium bicarbonate and 10 mM DTT by incubating at 65C for 20 min with shaking at 1500 rpm. Next, samples were cooled to 37° C. and then 10 μL of 500 mM iodoacetamide solution (92.48 mg/ml) was added. The samples were then incubated at 37° C. for 30 min with shaking at 600 rpm.
(§5) ZEBA desalting plates were equilibrated 4 times using 250 μL of 2M urea, 50 mM ammonium bicarbonate solution followed by centrifugation at 1500 rpm for 2 minutes. After equilibration was complete, samples were applied to ZEBA desalting plate and spin at 1500 rpm for 2 min on top of 1 mL 96-well deep-well collection plate to buffer exchange samples. 4 μL of solution containing 25 mM CaCl2 and 0.25 mg/mL trypsin was added to the plate and the plate was then incubated at 37° C. for 2 hrs with shaking at 600 rpm. 300 μL of solution containing 5% high-capacity streptavidin agarose slurry in 25 mM Tris-HCl pH 7.5, 150 mM NaCl, and 0.1% NP-40 then added. The plate was incubated at 25° C. for 2 hrs with shaking at 600 rpm. Samples were transferred to 25 μm filter plate and spin at 1000 rpm for 2 min. Samples were then washed 3 times with 0.75 mL of wash buffer (25 mM Tris-HCl pH 7.5, 150 mM NaCl, and 0.1% NP-40) followed by washing 3 times with 0.75 mL PBS, and then 4 times with 0.75 mL water. After the washing step, samples were eluted into polypropylene 96-well plate by addition of 250 µL of 50% MeCN/water, 0.1% formic acid and allowed to gravity drip for 10 min, followed by centrifugation at 1000 rpm for 2 min. Speedvac was used to dry the plates at about 45° C. for […]. Then the plates were covered with foil seal and stored at −20° C.
(§6) Samples were resuspended by addition of 20 μl of 12.5% ACN, 0.1% formic acid solution, covered with foil seal, and incubated at 42° C. for 10 minutes with shaking at 600 rpm. Then add 30 μL of 0.1% formic acid solution was added and the plate was covered and incubated at 42° C. for 10 minutes with shaking at 600 rpm. Seal plate was then sealed with a 96-well silicon mat for analysis.

[2] = biological target: T2, cysteine residue illustrated in Table 1A or Table 2A (Homo sapiens, UniProt Q9GZQ3); experiment: as above; settings: UniProt Q9GZQ3; 500 uM
T2 construct: Cells were resuspended in cold PBS on ice and sonicated with a probe sonicator to achieve lysis; endogenous in cells
Method: as §1, §2, §3, §4, §5, §6

[3] = biological target: T3, cysteine residue illustrated in Table 1A or Table 2A (Homo sapiens, UniProt Q5H9S7); experiment: as above; settings: UniProt Q5H9S7; 100 uM
T3 construct: Cells were resuspended in cold PBS on ice and sonicated with a probe sonicator to achieve lysis; endogenous in cells
T3 sequence (Q5H9S7 1-520): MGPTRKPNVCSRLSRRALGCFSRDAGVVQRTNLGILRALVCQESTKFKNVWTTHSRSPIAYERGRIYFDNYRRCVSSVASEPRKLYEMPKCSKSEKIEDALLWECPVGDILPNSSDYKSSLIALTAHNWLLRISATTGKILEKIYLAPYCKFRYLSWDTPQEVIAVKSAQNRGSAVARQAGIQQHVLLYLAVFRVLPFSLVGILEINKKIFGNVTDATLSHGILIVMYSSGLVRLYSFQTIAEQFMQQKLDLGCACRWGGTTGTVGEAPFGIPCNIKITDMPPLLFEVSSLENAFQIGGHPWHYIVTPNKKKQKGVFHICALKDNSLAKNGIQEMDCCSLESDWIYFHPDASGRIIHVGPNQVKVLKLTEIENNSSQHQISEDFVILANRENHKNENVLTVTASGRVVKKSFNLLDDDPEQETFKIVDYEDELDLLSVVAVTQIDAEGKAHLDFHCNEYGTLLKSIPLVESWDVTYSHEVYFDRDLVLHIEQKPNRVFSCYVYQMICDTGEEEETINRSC
Method: as §1, §2, §3, §4, §5, §6

[4] = biological target: T4, cysteine residue illustrated in Table 1A or Table 2A (Homo sapiens, UniProt P40337); experiment: as above; settings: UniProt P40337
T4 construct: Cells were resuspended in cold PBS on ice and sonicated with a probe sonicator to achieve lysis; endogenous in cells
Method: as §1, §2, §3, §4, §5, §6

[5] = biological target: T5, cysteine residue illustrated in Table 1A or Table 2A (Homo sapiens, UniProt P0C7V8); experiment: as above; settings: UniProt P0C7V8; 500 uM
T5 construct: Cells were resuspended in cold PBS on ice and sonicated with a probe sonicator to achieve lysis; endogenous in cells
Method: as §1, §2, §3, §4, §5, §6

[6] = biological target: T6, cysteine residue illustrated in Table 1A or Table 2A (Homo sapiens, UniProt Q7Z4G1); experiment: as above; settings: UniProt Q7Z4G1; 100 uM
T6 construct: Cells were resuspended in cold PBS on ice and sonicated with a probe sonicator to achieve lysis; endogenous in cells
Method: as §1, §2, §3, §4, §5, §6

[7] = biological target: T7, Q9UJX5 (Homo sapiens, UniProt Q9UJX5); experiment: Competitive cysteine profiling, probe competition (Table 2B)
T7 construct: Cells were resuspended in cold PBS on ice and sonicated with a probe sonicator to achieve lysis; endogenous in cells
From the text: as §2

[8] = biological target: T8, Q9UM13 (Homo sapiens, UniProt Q9UM13); experiment: as above
T8 construct: Cells were resuspended in cold PBS on ice and sonicated with a probe sonicator to achieve lysis; endogenous in cells
From the text: as §2

[9] = 500 uM, read-out: KB02_500 uM_percent_inhibition
[10] = 100 uM, read-out: KB05_100 uM_percent_inhibition
[11] = 500 uM, read-out: KB05_500 uM_percent_inhibition

SMILES: COc1ccc2c(c1)CCCN2C(=O)CCl [KB02]
- KB02_500 uM_percent_inhibition [1]: 55%
- KB02_500 uM_percent_inhibition [2]: 11%
- KB02_100 uM_percent_inhibition [3]: 69%
- KB02_100 uM_percent_inhibition ([4]; KB02 100 uM): 12%
- KB02_500 uM_percent_inhibition [5]: 55%
- KB02_100 uM_percent_inhibition [6]: 22%
- inhibition at 500 µM [7, 9]: 7%
- inhibition at 100 µM ([8]; 100 uM, read-out: KB02_100 uM_percent_inhibition): 1%
- inhibition at 500 µM [8, 9]: 53%

SMILES: C=CC(=O)N(c1ccccc1)c1ccc(Br)cc1 [KB05]
- KB05_500 uM_percent_inhibition [1]: 63%
- KB05_500 uM_percent_inhibition [2]: 56%
- KB05_100 uM_percent_inhibition [3]: 54%
- KB05_100 uM_percent_inhibition ([4]; KB05 100 uM): 15%
- KB05_500 uM_percent_inhibition ([4]; KB05 500 uM): 32%
- KB05_500 uM_percent_inhibition [5]: 63%
- KB05_100 uM_percent_inhibition [6]: 33%
- inhibition at 100 µM [7, 10]: 6%
- inhibition at 500 µM [7, 11]: 20%
- inhibition at 100 µM [8, 10]: 18%
- inhibition at 500 µM [8, 11]: 62%

SMILES: O=C(CCl)Nc1cc(C(F)(F)F)cc(C(F)(F)F)c1 [KBO3]
- KB03_500 uM_percent_inhibition [1]: 41%
- KB03_500 uM_percent_inhibition [2]: 24%
- KB03_100 uM_percent_inhibition [3]: 39%
- KB03_100 uM_percent_inhibition ([4]; KB03 100 uM): 19%
- KB03_500 uM_percent_inhibition [5]: 41%
- KB03_100 uM_percent_inhibition [6]: 33%
- KB03_500 uM_percent_inhibition ([7]; 500 uM): 29%
- KB03_100 uM_percent_inhibition ([8]; 100 uM): 11%
- KB03_500 uM_percent_inhibition ([8]; 500 uM): 37%
